Patent US20170050957A1, “4-AMINO-6-(HETEROCYCLIC)PICOLINATES AND 6-AMINO-2-(HETEROCYCLIC)PYRIMIDINE-4-CARBOXYLATES AND THEIR USE AS HERBICIDES” (Dow AgroSciences LLC, priority 2013, published 2017)
Like-named read-outs stand apart in the source and are kept apart here.

Assays:
[1] = tested on: Key Grass and Sedge Weeds as well as Grass Crops; assay: Post-emergent Test II herbicidal activity (Table 16); assay type: in vivo; details: post-emergence, 336 h, 14 d; for pest or weed control at 35 g/ha: 35 g ai/ha; for pest or weed control at 70 g/ha: 70 g ai/ha; for pest or weed control at 140 g/ha: 140 g ai/ha
In short: (§1)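 Plants grown in greenhouse (~15 h photoperiod, 23-29 °C day, 22-28 °C night) to first or second true leaf stage, then sprayed post-emergence at 187 L/ha with a high rate and 1/2×, 1/4×, 1/8× and 1/16× dilutions. Injury scored visually after 14 d, 0-100% versus untreated plants.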

[2] = tested on: Key Broadleaf Weed and Crop Species; assay: Post-emergent Test II herbicidal activity (Table 15); assay type: in vivo; details: post-emergence, 336 h, 14 d; for pest or weed control at 35 g/ha: 35 g ai/ha; for pest or weed control at 70 g/ha: 70 g ai/ha; for pest or weed control at 140 g/ha: 140 g ai/ha
In short: as §1

[3] = Cyperus esculentus, yellow nutsedge (Cyperus esculentus), read-out: Visual Growth Reduction (%) 14 Days After Application, CYPES
[4] = Echinochloa crus-galli, barnyardgrass (Echinochloa crus-galli), read-out: Visual Growth Reduction (%) 14 Days After Application, ECHCG
[5] = Oryza sativa, rice (Oryza sativa), read-out: Visual Growth Reduction (%) 14 Days After Application, ORYSA
[6] = Setaria faberi, giant foxtail (Setaria faberi), read-out: Visual Growth Reduction (%) 14 Days After Application, SETFA
[7] = Triticum aestivum, wheat, spring (Triticum aestivum), read-out: Visual Growth Reduction (%) 14 Days After Application, TRZAS
[8] = Zea mays, maize, corn (Zea mays), read-out: Visual Growth Reduction (%) 14 Days After Application, ZEAMX
[9] = Abutilon theophrasti, velvetleaf (Abutilon theophrasti), read-out: Visual Growth Reduction (%) 14 Days After Application, ABUTH
[10] = Amaranthus retroflexus, redroot pigweed (Amaranthus retroflexus), read-out: Visual Growth Reduction (%) 14 Days After Application, AMARE
[11] = Brassica napus, oilseed rape, canola (Brassica napus), read-out: Visual Growth Reduction (%) 14 Days After Application, BRSNN
[12] = Chenopodium album, lambsquarters (Chenopodium album), read-out: Visual Growth Reduction (%) 14 Days After Application, CHEAL
[13] = Euphorbia heterophylla, wild poinsettia (Euphorbia heterophylla), read-out: Visual Growth Reduction (%) 14 Days After Application, EPHHL
[14] = Helianthus annuus, sunflower (Helianthus annuus), read-out: Visual Growth Reduction (%) 14 Days After Application, HELAN

COC(=O)c1nc(-c2ccc(Cl)c3[nH]ccc23)c(F)c(N)c1Cl [Compound 1.43]
pest or weed control at 35 g/ha [1, 3]: 0 to 29% | pest or weed control at 70 g/ha [1, 3]: 0 to 29% | pest or weed control at 140 g/ha [1, 3]: 0 to 29% | pest or weed control at 35 g/ha [1, 4]: 0 to 29% | pest or weed control at 70 g/ha [1, 4]: 0 to 29% | pest or weed control at 140 g/ha [1, 4]: 0 to 29% | pest or weed control at 35 g/ha [1, 5]: 0 to 29% | pest or weed control at 70 g/ha [1, 5]: 0 to 29% | pest or weed control at 140 g/ha [1, 5]: 0 to 29% | pest or weed control at 35 g/ha [1, 6]: 0 to 29% | pest or weed control at 70 g/ha [1, 6]: 0 to 29% | pest or weed control at 140 g/ha [1, 6]: 0 to 29% | pest or weed control at 35 g/ha [1, 7]: 0 to 29% | pest or weed control at 70 g/ha [1, 7]: 0 to 29% | pest or weed control at 140 g/ha [1, 7]: 0 to 29% | pest or weed control at 35 g/ha [1, 8]: 0 to 29% | pest or weed control at 70 g/ha [1, 8]: 0 to 29% | pest or weed control at 140 g/ha [1, 8]: 0 to 29% | pest or weed control at 35 g/ha [2, 9]: 0 to 29% | pest or weed control at 70 g/ha [2, 9]: 0 to 29% | pest or weed control at 140 g/ha [2, 9]: 60 to 74% | pest or weed control at 35 g/ha [2, 10]: 95 to 100% | pest or weed control at 70 g/ha [2, 10]: 95 to 100% | pest or weed control at 140 g/ha [2, 10]: 95 to 100% | pest or weed control at 35 g/ha [2, 11]: 0 to 29% | pest or weed control at 70 g/ha [2, 11]: 0 to 29% | pest or weed control at 140 g/ha [2, 11]: 0 to 29% | pest or weed control at 35 g/ha [2, 12]: 75 to 84% | pest or weed control at 70 g/ha [2, 12]: 85 to 94% | pest or weed control at 140 g/ha [2, 12]: 85 to 94% | pest or weed control at 35 g/ha [2, 13]: 0 to 29% | pest or weed control at 70 g/ha [2, 13]: 0 to 29% | pest or weed control at 140 g/ha [2, 13]: 30 to 44% | pest or weed control at 35 g/ha [2, 14]: 60 to 74% | pest or weed control at 70 g/ha [2, 14]: 75 to 84% | pest or weed control at 140 g/ha [2, 14]: 75 to 84%
